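Compound exposure: 48 hours, 5 concentrations, 96-well plates. Here, GI50 denotes the concentration required for 50% inhibition of growth.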 Activity calls are given as the source filed them. Rule as the data show it: active = GI50 up to about 1.1 µM and inactive = higher.
Experiments:
Assay in all cases: growth of human tumour cells (NCI), 48 h
[1] = system: 786-0
[2] = system: A498
[3] = system: CAKI-1
[4] = system: HOP-62
[5] = system: HOP-92
[6] = system: Hs-578T
[7] = system: IGROV-1
[8] = system: LOX IMVI
[9] = system: MDA-MB-231
[10] = system: Malme-3M
[11] = system: NCI-H226
[12] = system: NCI-H460
[13] = system: SF-539
[14] = system: SN12C
[15] = system: SNB-19
[16] = system: SW-620
[17] = system: T47D
[18] = system: UACC-257
[19] = system: UACC-62
[20] = system: MDA-MB-435

Structure (SMILES)	GI50 [1]	GI50 [2]	GI50 [3]	GI50 [4]	GI50 [5]	GI50 [6]	GI50 [7]	GI50 [8]	GI50 [9]	GI50 [10]	GI50 [11]	GI50 [12]	GI50 [13]	GI50 [14]	GI50 [15]	GI50 [16]	GI50 [17]	GI50 [18]	GI50 [19]	GI50 [20]
CCCCOCCOCCOC1=C(Cl)C(=O)c2c(O)ccc(O)c2C1=O	1.79 µM (inactive)	2.36 µM (inactive)	0.209 µM (active)	1.19 µM (inactive)	0.199 µM (active)	2.4 µM (inactive)	1.35 µM (inactive)	0.512 µM (active)	0.488 µM (active)	1.46 µM (inactive)	1.79 µM (inactive)	1.85 µM (inactive)	1.51 µM (inactive)	1.61 µM (inactive)	1.77 µM (inactive)	0.283 µM (active)	0.488 µM (active)	0.766 µM (active)	0.8 µM (active)	–
Cc1ccccc1C(=O)C#Cc1cn(C2CC(O)C(CO)O2)c(=O)[nH]c1=O (stereo not given)	> 100 µM (inactive)	–	> 100 µM (inactive)	> 100 µM (inactive)	74.1 µM (inactive)	> 100 µM (inactive)	> 100 µM (inactive)	–	> 100 µM (inactive)	18.3 µM (inactive)	> 100 µM (inactive)	> 100 µM (inactive)	> 100 µM (inactive)	> 100 µM (inactive)	> 100 µM (inactive)	> 100 µM (inactive)	68.2 µM (inactive)	> 100 µM (inactive)	> 100 µM (inactive)	> 100 µM (inactive)
COc1c(O)c(OC)c2oc(-c3ccc(O)cc3)c(OC)c(=O)c2c1O	17.8 µM (inactive)	30.3 µM (inactive)	27.8 µM (inactive)	24.4 µM (inactive)	–	18.4 µM (inactive)	17.8 µM (inactive)	30.9 µM (inactive)	42.5 µM (inactive)	13.4 µM (inactive)	50.9 µM (inactive)	45.7 µM (inactive)	55.3 µM (inactive)	70.6 µM (inactive)	> 100 µM (inactive)	34.5 µM (inactive)	10.2 µM (inactive)	76.2 µM (inactive)	22.7 µM (inactive)	33.6 µM (inactive)
Oc1ccc2ccccc2c1/N=N/c1ccc(/N=N/c2ccccc2)cc1	> 100 µM (inactive)	> 100 µM (inactive)	> 100 µM (inactive)	> 100 µM (inactive)	–	> 100 µM (inactive)	> 100 µM (inactive)	> 100 µM (inactive)	89.1 µM (inactive)	> 100 µM (inactive)	> 100 µM (inactive)	–	–	> 100 µM (inactive)	> 100 µM (inactive)	> 100 µM (inactive)	> 100 µM (inactive)	> 100 µM (inactive)	75.7 µM (inactive)	64.1 µM (inactive)
Clc1cccc(-c2sc(-c3cccs3)cc2Cc2cccs2)c1	> 10 µM (inactive)	–	> 10 µM (inactive)	> 10 µM (inactive)	> 10 µM (inactive)	> 10 µM (inactive)	> 10 µM (inactive)	> 10 µM (inactive)	9.84 µM (inactive)	> 10 µM (inactive)	> 10 µM (inactive)	> 10 µM (inactive)	> 10 µM (inactive)	> 10 µM (inactive)	> 10 µM (inactive)	> 10 µM (inactive)	0.74 µM (active)	> 10 µM (inactive)	> 10 µM (inactive)	> 10 µM (inactive)
C[C@@H]1S[C@H](c2ccccc2F)N2Cc3ccccc3N=C12	23.4 µM (inactive)	–	20.9 µM (inactive)	29.8 µM (inactive)	17.3 µM (inactive)	27.7 µM (inactive)	33.5 µM (inactive)	18.5 µM (inactive)	35 µM (inactive)	19.9 µM (inactive)	30.1 µM (inactive)	30.9 µM (inactive)	37.9 µM (inactive)	18.7 µM (inactive)	30.6 µM (inactive)	36.4 µM (inactive)	24.1 µM (inactive)	28.6 µM (inactive)	19.1 µM (inactive)	23.5 µM (inactive)
c1cc2nnc1SCCCSc1ccc(nn1)SCCCSc1ccc(nn1)SCCCS2	61 µM (inactive)	> 100 µM (inactive)	> 100 µM (inactive)	39.6 µM (inactive)	–	32.4 µM (inactive)	> 100 µM (inactive)	> 100 µM (inactive)	97.3 µM (inactive)	> 100 µM (inactive)	> 100 µM (inactive)	> 100 µM (inactive)	82.4 µM (inactive)	> 100 µM (inactive)	44.7 µM (inactive)	> 100 µM (inactive)	> 100 µM (inactive)	> 100 µM (inactive)	> 100 µM (inactive)	> 100 µM (inactive)
